Assays:
[1] = Adsorption of 125I-marked desmopressin to tubes of polystyrene, polypropene and glass; type: physicochemical; conditions: 24 h, ambient temperature
Description: Sterile aqueou solutions of desmopressin marked with ^125 I (appr. 10,000 CPM/ml) containing benzalkonium chloride+saline, chlorobutanol+saline, or saline only, were all incubated in tubes of polystyrene, polypropene and glass for 24 h at ambient temperature.

[2] = aqueous solution of desmopressin; cited from earlier work

amount of desmopressin recovered from the plastic tubes ([1]; preservative-free solution (saline only), plastic tubes): about half
adsorption of desmopressin to tubes ([1]; solution containing benzalkonium chloride + saline): insignificant adsorption
adsorption of desmopressin to tubes ([1]; solution containing chlorobutanol + saline): insignificant adsorption
SMILES: NC(=O)CC[C@@H]1NC(=O)[C@H](Cc2ccccc2)NC(=O)[C@H](Cc2ccc(O)cc2)NC(=O)CCSSC[C@@H](C(=O)N2CCC[C@H]2C(=O)N[C@H](CCCN=C(N)N)C(=O)NCC(N)=O)NC(=O)[C@H](CC(N)=O)NC1=O [desmopressin, 1-deamino-8-D-arginine vasopressin]
storage temperature required for the aqueous solution [2]: ≤ 8 °C
